# In US12187709B2 (Genentech, Inc., priority 2021, dated 2025):
# How the values were obtained:
# [1] = molecular target: Human Cbl-b (residues 40-426) (Homo sapiens (Human), UniProt Q13191); assay: Cbl-b SPR assay; format: binding; conditions: for Fold of selectivity: C-cbl SPR Kd vs Cbl-b SPR Kd; for Kd: SPR, 20° C.
# Method in brief: (§1)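 Binding is measured by surface plasmon resonance against both isoforms, with double referencing and 1:1 kinetic fitting. Dissociation time is tuned to 4-5 half-lives.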
# Cbl-b = Cbl-b (Homo sapiens (Human), UniProt Q13191); assay: Cbl-b LCK Ub TR-FRET assay (Cbl-b Lck HTRF); format: biochemical; conditions: for IC50: Cbl-b LCK Ub TR-FRET; for fold-selectivity (Cbl-b over C-cbl): ratio C-cbl Lck HTRF IC50 / Cbl-b Lck HTRF IC50
# Chain of Cbl-b (Q13191 40-426): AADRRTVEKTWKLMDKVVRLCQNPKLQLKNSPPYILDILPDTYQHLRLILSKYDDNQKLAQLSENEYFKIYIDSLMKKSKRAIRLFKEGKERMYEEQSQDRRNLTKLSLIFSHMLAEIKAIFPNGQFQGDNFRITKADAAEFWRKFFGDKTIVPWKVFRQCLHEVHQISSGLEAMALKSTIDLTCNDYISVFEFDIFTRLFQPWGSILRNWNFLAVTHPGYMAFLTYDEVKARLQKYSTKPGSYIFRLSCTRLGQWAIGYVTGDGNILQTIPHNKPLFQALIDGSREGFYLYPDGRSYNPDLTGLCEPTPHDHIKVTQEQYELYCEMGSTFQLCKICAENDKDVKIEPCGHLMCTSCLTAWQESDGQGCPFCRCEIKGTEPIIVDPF
# Method in brief: (§2)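 After the ubiquitination reaction, detection mixture was added and plates incubated 20 min at room temperature before reading. IC50 values were calculated with wells lacking LCK as the low control and DMSO as the high control.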
# c-Cbl (residues 47-435) = c-Cbl (residues 47-435) (Homo sapiens (Human), UniProt P22681); assay: c-Cbl SPR assay; format: binding; conditions: 20° C.
# Chain of c-Cbl (residues 47-435) (P22681 47-435): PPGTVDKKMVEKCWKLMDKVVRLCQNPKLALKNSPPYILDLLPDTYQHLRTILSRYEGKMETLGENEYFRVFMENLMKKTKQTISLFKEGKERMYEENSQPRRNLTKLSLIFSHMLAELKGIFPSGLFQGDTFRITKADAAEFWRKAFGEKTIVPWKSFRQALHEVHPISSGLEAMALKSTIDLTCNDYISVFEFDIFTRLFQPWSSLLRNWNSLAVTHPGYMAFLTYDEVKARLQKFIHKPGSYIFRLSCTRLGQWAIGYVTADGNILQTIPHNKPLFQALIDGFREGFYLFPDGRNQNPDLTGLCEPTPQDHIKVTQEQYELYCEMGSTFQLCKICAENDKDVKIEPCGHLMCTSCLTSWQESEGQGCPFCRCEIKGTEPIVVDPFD
# Method in brief: as §1
# c-Cbl = c-Cbl (Homo sapiens (Human), UniProt P22681); assay: C-Cbl LCK Ub TR-FRET assay (C-cbl Lck HTRF); format: biochemical
# Chain of c-Cbl (P22681 47-435): as above
# Method in brief: as §2
# Chain of Human Cbl-b (residues 40-426) (Q13191 40-426): as the sequence (Q13191 40-426) above
SMILES,Fold of selectivity [1],Kd [1],IC50 (Cbl-b),fold-selectivity (Cbl-b over C-cbl) (Cbl-b),Kd (c-Cbl (residues 47-435)),IC50 (c-Cbl)
"CC[C@H](NC1(C)CCC1)c1cc2c(c(C(F)(F)F)c1)CN(c1cccc([C@H](c3nncn3C)C3COC3)c1)C2=O [Compound 313, 2-(3-((R)-(4-methyl-4H-1,2,4-triazol-3-yl)(oxetan-3-yl)methyl)phenyl)-6-((S)-1-((1-methylcyclobutyl)amino)propyl)-4-(trifluoromethyl)isoindolin-1-one]",4.0×,0.2 nM,6.4 nM,0.68x,0.8 nM,4.4 nM
"CC[C@@H](NC1(C)CCC1)c1cc2c(c(C(F)(F)F)c1)CN(c1cccc([C@H](c3nncn3C)C3COC3)c1)C2=O [Compound 314, 2-(3-((R)-(4-methyl-4H-1,2,4-triazol-3-yl)(oxetan-3-yl)methyl)phenyl)-6-((R)-1-((1-methylcyclobutyl)amino)propyl)-4-(trifluoromethyl)isoindolin-1-one]",5.5×,5.1 nM,11 nM,4.5x,28 nM,51 nM
"Cn1cnnc1[C@@H](c1cccc(N2Cc3c(Cl)cc(CNC4(C)CCC4)cc3C2=O)c1)[C@H]1C[C@@H](F)C1 [Compound 317, 4-chloro-2-(3-((R)-((1s,3S)-3-fluorocylcobutyl)(4-methyl-4H-1,2,4-triazol-3-yl)methyl)phenyl)-6-(((1-methylcyclobutyl)amino)methyl)isoindolin-1-one]",15×,100 nM,170 nM,6.5x,1500 nM,1100 nM
"CS[C@H]1C[C@](c2cccc(N3Cc4c(cc(CNC5(C)CCC5)cc4C(F)(F)F)C3=O)c2)(c2nncn2C)C1 [Compound 323, 2-(3-((1r,3r)-1-(4-methyl-4H-1,2,4-triazol-3-yl)-3-(methylthio)cyclobutyl)phenyl)-6-(((1-methylcyclobutyl)amino)methyl)-4-(trifluoromethyl)isoindolin-1-one]",12×,0.47 nM,5 nM,1.4x,5.2 nM,7.1 nM
"CS[C@H]1C[C@@](c2cccc(N3Cc4c(cc(CNC5(C)CCC5)cc4C(F)(F)F)C3=O)c2)(c2nncn2C)C1 [Compound 324, 2-(3-((1s,3s)-1-(4-methyl-4H-1,2,4-triazol-3-yl)-3-(methylthio)cyclobutyl)phenyl)-6-(((1-methylcyclobutyl)amino)methyl)-4-(trifluoromethyl)isoindolin-1-one]",10×,0.57 nM,4.8 nM,1.5x,5.7 nM,7.1 nM
"Cn1cnnc1C1(c2cccc(N3Cc4c(cc(C(N)=O)cc4C(F)(F)F)C3=O)c2)CCC1 [Compound 327, 2-(3-(1-(4-methyl-4H-1,2,4-triazol-3-yl)cyclobutyl)phenyl)-3-oxo-7-(trifluoromethyl)isoindoline-5-carboxamide]",4.7×,210 nM,190 nM,2.9x,980 nM,550 nM
"Cn1cnnc1C1(c2cccc(N3Cc4c(cc(CNC5(C)CCC5)cc4C(F)(F)F)C3=O)c2)CS(=O)(=O)C1 [Compound 328, 2-(3-(3-(4-methyl-4H-1,2,4-triazol-3-yl)-1,1-dioxidothietan-3-yl)phenyl)-6-(((1-methylcyclobutyl)amino)methyl)-4-(trifluoromethyl)isoindolin-1-one]",4.8×,67 nM,100 nM,3.8x,320 nM,380 nM
"Cn1cnnc1C1(c2cccc(N3Cc4c(cc(CNC5(C)CCC5)cc4C(F)(F)F)C3=O)c2)CSC1.O=CO [Compound 329, 2-(3-(3-(4-methyl-4H-1,2,4-triazol-3-yl)thietan-3-yl)phenyl)-6-(((1-methylcyclobutyl)amino)methyl)-4-(trifluoromethyl)isoindolin-1-one formate]",5.7×,3.2 nM,11 nM,1.8x,19 nM,19 nM
"Cn1cnnc1[C@]1(c2cccc(N3Cc4c(cc(CNC5(C)CCC5)cc4C(F)(F)F)C3=O)c2)C[S@+]([O-])C1 [Compound 330, 2-(3-((1s,3s)-3-(4-methyl-4H-1,2,4-triazol-3-yl)-1-oxidothietan-3-yl)phenyl)-6-(((1-methylcyclobutyl)amino)methyl)-4-(trifluoromethyl)isoindolin-1-one]",11×,110 nM,200 nM,1.9x,1200 nM,390 nM
